# Target: T1, aryl hydrocarbon receptor (AhR) (Homo sapiens, UniProt P35869)
# T1 construct: The HepG2 CYP1A1-Luc cells do express basal luciferase activity that can be increased via potent AhR agonists or decreased via potent AhR antagonists; endogenous in cells; host or cells: HepG2 (DSMZ # ACC 180) stably carrying a CYP1A1 promoter-firefly luciferase reporter
# T1 sequence (P35869 11-848): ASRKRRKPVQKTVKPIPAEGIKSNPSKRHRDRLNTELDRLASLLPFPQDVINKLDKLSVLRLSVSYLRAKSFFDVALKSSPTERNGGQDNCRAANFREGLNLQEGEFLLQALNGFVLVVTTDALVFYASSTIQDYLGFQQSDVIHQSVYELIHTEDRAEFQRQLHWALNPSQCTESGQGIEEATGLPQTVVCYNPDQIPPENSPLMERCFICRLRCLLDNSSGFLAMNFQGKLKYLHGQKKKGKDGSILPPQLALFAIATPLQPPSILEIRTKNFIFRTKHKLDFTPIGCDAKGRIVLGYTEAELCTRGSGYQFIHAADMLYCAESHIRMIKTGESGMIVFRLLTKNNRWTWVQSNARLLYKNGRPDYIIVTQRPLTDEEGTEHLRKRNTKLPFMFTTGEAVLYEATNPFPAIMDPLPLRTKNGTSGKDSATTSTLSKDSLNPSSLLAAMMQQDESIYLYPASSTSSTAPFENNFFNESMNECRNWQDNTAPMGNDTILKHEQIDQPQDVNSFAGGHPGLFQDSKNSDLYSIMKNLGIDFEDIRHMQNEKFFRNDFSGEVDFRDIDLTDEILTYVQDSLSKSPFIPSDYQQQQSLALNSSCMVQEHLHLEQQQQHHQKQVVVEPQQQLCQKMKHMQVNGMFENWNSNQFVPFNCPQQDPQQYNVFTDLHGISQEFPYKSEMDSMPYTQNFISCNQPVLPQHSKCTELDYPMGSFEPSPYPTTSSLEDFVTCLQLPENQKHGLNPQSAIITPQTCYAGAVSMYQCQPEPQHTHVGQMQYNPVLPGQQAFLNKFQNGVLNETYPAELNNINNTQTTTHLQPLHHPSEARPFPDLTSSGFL
# Experiment: AhR direct luciferase reporter assay in HepG2 cells (HepG2 CYP1A1-LUC)
# Assay type: cell-based
# Conditions: luciferase activity after 18 hours, no exogenous AhR agonist or 10 nM VAF347, read-out: AhR potency (AhR antagonistic potency, IC50)
# Experimental: AhR Direct Luciferase Reporter Assay in HepG2 Cells.
# A stable cell line (HepG2 CYP1A1-LUC) was used in which part of the promoter region of the human CYP1A1 gene is stably integrated into the genome of human HepG2 hepatocytes (DSZM # ACC 180) in front of a Photinus pyralis Firefly Luciferase gene. […] The resulting vector was linearized with NotI, transfected into HepG2 cells (DSMZ # ACC 180) and stably transfected clones selected with 250 μg/ml Hygromycin B. After repetitive rounds of subcloning and testing for robustly regulated luciferase activity after AhR agonist stimulation, a stable clonal HepG2 CYP1A1-Luc cell line was selected.
# The HepG2 CYP1A1-Luc cells do express basal luciferase activity that can be increased via potent AhR agonists or decreased via potent AhR antagonists, added to the growth medium of the cells.
# Cells are further cultivated for 18 hours and luciferase activities are determined from extracts of cells in buffers containing D-Luciferine and ATP using a LUMIstar Optima microplate Luminometer from BMG Labtech.
row,IC50,Structure (SMILES)
1,> 1000 nM,"Cc1ccccc1-c1cc2ccc(NC(=O)c3ccc(O)c(C(N)=O)c3)cc2[nH]1 [3/4, 4-HYDROXY-N^1-(2-(O-TOLYL)-1H-INDOL-6-YL)ISOPHTHALAMIDE]"
2,< 100 nM,"Cc1ccccc1-c1cc2ccc(NC(=O)c3ccccn3)cc2[nH]1 [3/5, N-(2-(O-TOLYL)-1H-INDOL-6-YL)PICOLINAMIDE]"
3,< 100 nM,"Cc1cc2cc(-c3ccccc3C(F)(F)F)[nH]c2cc1NC(=O)c1ccccn1 [4/1, N-(5-METHYL-2-(2-(TRIFLUOROMETHYL)PHENYL)-1H-INDOL-6-YL)PICOLINAMIDE]"
4,< 100 nM,Cn1nccc1C(=O)Nc1ccc2cc(-c3ccccc3C(F)F)[nH]c2c1 [6/1]
5,< 100 nM,Cn1ncnc1C(=O)Nc1ccc2cc(-c3cc(F)ccc3C(F)F)[nH]c2c1 [6/3]
6,< 100 nM,Cn1nccc1C(=O)Nc1ccc2cc(-c3cc(F)ccc3C(F)F)[nH]c2c1 [6/4]
7,< 100 nM,Cn1ncnc1C(=O)Nc1ccc2cc(-c3cc(Cl)ccc3C(F)(F)F)[nH]c2c1 [6/5]
8,< 100 nM,Cn1nccc1C(=O)Nc1ccc2cc(-c3cc(Cl)ccc3C(F)(F)F)[nH]c2c1 [6/6]
9,100 to 1000 nM,"Cn1nccc1C(=O)Nc1ccc2cc(-c3ccccc3Cl)[nH]c2c1 [Example 2, N-(2-(2-Chlorophenyl)-1H-indol-6-yl)-1-methyl-1H-pyrazole-5-carboxamide]"
10,100 to 1000 nM,"Cc1ccccc1-c1cc2ccc(NC(=O)c3ccn[nH]3)cc2[nH]1 [Example 3, N-(2-(O-TOLYL)-1H-INDOL-6-YL)-1H-PYRAZOLE-5-CARBOXAMIDE]"
11,< 100 nM,"Cc1cc2cc(-c3ccccc3C(F)(F)F)[nH]c2cc1NC(=O)c1ncnn1C [Example 4, 1-METHYL-N-(5-METHYL-2-(2-(TRIFLUOROMETHYL)PHENYL)-1H-INDOL-6-YL)-1H-1,2,4-TRIAZOLE-5-CARBOXAMIDE]"
12,< 100 nM,"Cn1ncnc1C(=O)Nc1ccc2cc(-c3ccccc3C(F)F)[nH]c2c1 [Example 6, N-(2-(2-(Difluoromethyl)phenyl)-1H-indol-6-yl)-1-methyl-1H-1,2,4-triazole-5-carboxamide]"

# More lines, now with the values behind:
row,Structure (SMILES),IC50
1,"Cn1nccc1C(=O)Nc1ccc2cc(-c3ccccc3F)[nH]c2c1 [1/1, N-(2-(2-FLUOROPHENYL)-1H-INDOL-6-YL)-1-METHYL-1H-PYRAZOLE-5-CARBOXAMIDE]",100 to 1000 nM
2,"Cn1nccc1C(=O)Nc1ccc2cc(-c3cccc(Cl)c3)[nH]c2c1 [1/2, N-(2-(3-CHLOROPHENYL)-1H-INDOL-6-YL)-1-METHYL-1H-PYRAZOLE-5-CARBOXAMIDE]",100 to 1000 nM
3,"Cn1nccc1C(=O)Nc1ccc2cc(-c3ccccc3C(F)(F)F)[nH]c2c1 [2/1, 1-METHYL-N-(2-(2-(TRIFLUOROMETHYL)PHENYL)-1H-INDOL-6-YL)-1H-PYRAZOLE-5-CARBOXAMIDE]",< 100 nM
4,"Cn1nccc1C(=O)Nc1ccc2cc(-c3ccc(Cl)cc3Cl)[nH]c2c1 [2/2, N-(2-(2,4-DICHLOROPHENYL)-1H-INDOL-6-YL)-1-METHYL-1H-PYRAZOLE-5-CARBOXAMIDE]",100 to 1000 nM
5,"Cc1ccccc1-c1cc2ccc(NC(=O)c3ccnn3C(C)C)cc2[nH]1 [2/3, 1-ISOPROPYL-N-(2-(O-TOLYL)-1H-INDOL-6-YL)-1H-PYRAZOLE-5-CARBOXAMIDE]",> 1000 nM
6,"Cn1ncnc1C(=O)Nc1ccc2cc(-c3ccccc3C(F)(F)F)[nH]c2c1 [2/4, 1-METHYL-N-(2-(2-(TRIFLUOROMETHYL)PHENYL)-1H-INDOL-6-YL)-1H-1,2,4-TRIAZOLE-5-CARBOXAMIDE]",< 100 nM
7,"O=C(Nc1ccc2cc(-c3ccccc3C(F)(F)F)[nH]c2c1)c1ccccn1 [2/5, N-(2-(2-(TRIFLUOROMETHYL)PHENYL)-1H-INDOL-6-YL)PICOLINAMIDE]",< 100 nM
8,"Cc1ccccc1-c1cc2ccc(NC(=O)c3ncnn3C)cc2[nH]1 [3/1, 1-METHYL-N-(2-(O-TOLYL)-1H-INDOL-6-YL)-1H-1,2,4-TRIAZOLE-5-CARBOXAMIDE]",< 100 nM
9,"Cc1ccccc1-c1cc2ccc(NC(=O)c3cccn3C)cc2[nH]1 [3/2, 1-METHYL-N-(2-(O-TOLYL)-1H-INDOL-6-YL)-1H-PYRROLE-2-CARBOXAMIDE]",< 100 nM
10,"Cc1ccccc1-c1cc2ccc(NC(=O)c3ccco3)cc2[nH]1 [3/3, N-(2-(O-TOLYL)-1H-INDOL-6-YL)FURAN-2-CARBOXAMIDE]",< 100 nM
